In patent US20080214568A1, “Pharmaceutical Combination Comprising an Antifungal Agent and an Active Substance Selected From Carveol, Eugenol, Thymol, Borneol, Carvacrol, and Alpha- and Beta-Ionones” (ADVANCED SCIENTIFIC DEVELOPMENTS, priority 2005, published 2008):
Read-outs that look alike come from different tables or passages of the source.

Columns and labels:
Candida albicans = assay: Static tests: minimal inhibitory (MIC) and minimal fungicidal concentration (MFC) on Candida albicans strains; type: cell-based
Description: In Vitro Tests: Determination of Minimal Fungicidal Concentration (MFC) on Different Strains of Candida albicans
The experiment was carried out with several strains of Candida albicans having different susceptibilities isolated in the hospital environment from the mouth, vagina and digestive tract. […] An antifungal pharmaceutical composition was prepared by mixing fluconazole at different concentrations with carvacrol at a sub-inhibitory concentration of 0.3 g per liter of solution or excipient. This pharmaceutical composition according to the invention was named FLUC-P for potentiated fluconazole. In each case, antifungal activity was determined either with fluconazole alone, or with carvacrol alone, or with the composition of the invention.
Table 1 gives the results of static tests to determine the minimal fungicidal concentration (MFC) in μg/ml.
(§1) The experiment was carried out with several strains of Candida albicans having different susceptibilities isolated in the hospital environment. The antifungal agent used was voriconazole, an azole derivative and one of the most recent antifungals on the market. An antifungal pharmaceutical composition according to the invention was prepared by mixing voriconazole at different concentrations with carvacrol at a sub-inhibitory concentration of 0.3 g per liter of solution or excipient. This pharmaceutical composition according to the invention was named Vorico-P for potentiated voriconazole. In each case, antifungal activity was determined either with voriconazole alone, or with carvacrol alone, or with the composition of the invention.
Table 2 gives the results of static tests to determine the minimal inhibitory concentration (MIC) and the minimal fungicidal concentration (MFC) in μg/ml.
as §1, with “caspofungin, from the echinocandin family, which is” for “voriconazole, an azole derivative and”, “newest” for “most recent”, “caspofungin” for “voriconazole”, “Caspo-P” for “Vorico-P”, “caspofungin.” for “voriconazole.”
Table 3 gives the results of static tests to determine the minimal inhibitory concentration (MIC) and the minimal fungicidal concentration (MFC) in μg/ml.
The experiment was carried out with several strains of Candida albicans having different susceptibilities isolated in the hospital environment. The antifungal agent used was 5-fluorocytosine, from the pyrimidine group, which is one of the oldest antifungal agents. An antifungal pharmaceutical composition according to the invention was prepared by mixing 5-fluorocytosine at different concentrations with eugenol at a sub-inhibitory concentration of 0.5 g per liter of solution or excipient. This pharmaceutical composition according to the invention was named Fluoro-P for potentiated 5-fluorocytosine. In each case, antifungal activity was determined either with 5-fluorocytosine alone, or with eugenol alone, or with the composition of the invention.
Table 4 gives the results of static tests to determine the minimal inhibitory concentration (MIC) and the minimal fungicidal concentration (MFC) in μg/ml.

[1] = tested on: Candida albicans strain with moderate resistance to fluconazole; type: in vivo, mice; conditions: fluconazole alone 4 mg/kg/day, carvacrol alone 30 mg/kg/day; for survival: mice, gavage from 24 h post-infection, seven days, composition fluconazole 2 mg/kg + carvacrol 30 mg/kg, FIG. 2; for Candida albicans loads in kidney, lung and bone marrow: organs of mice which died during the experiment
Text: FIG. 2 presents the results of in vivo tests in a systemic candidiasis model in experimentally infected mice either untreated, or treated with fluconazole alone, treated with carvacrol alone, or treated with a pharmaceutical composition according to the invention comprising fluconazole and carvacrol.
Groups of 15 mice were experimentally infected by intravenous injection of 10,000,000 cells (colony-forming units) of a Candida albicans strain with moderate resistance to fluconazole.
The first group was composed of control mice which were infected and untreated.
The second group was composed of infected mice treated by gavage, 24 h post-infection, with fluconazole alone at a dose of 4 mg/kg of body weight/day.
The third group was composed of infected mice treated by gavage, 24 h post-infection, with carvacrol alone at a dose of 30 mg/kg of body weight/day.
The fourth group was composed of infected mice treated by gavage, 24 h post-infection, with fluconazole 2 mg/kg of body weight and with carvacrol 30 mg/kg of body weight.
The duration of treatment was seven days for surviving animals. The survival rate was measured over time. […] All the other mice died between the second and seventh day post-infection.

Aspergillus niger = assay: Static tests: MIC and MFC on Aspergillus niger strains; type: cell-based
Description: The experiment was carried out with several strains of Aspergillus niger which were not susceptible to fluconazole. The antifungal agent used was fluconazole, an azole derivative and one of the most widely used antifungals. […] Aspergillosis, caused by microorganisms from the family Aspergillus sp, represents the most common and most difficult-to-treat infection. An antifungal pharmaceutical composition according to the invention was prepared by mixing fluconazole at different concentrations with carvacrol at a sub-inhibitory concentration of 0.25 g per liter of solution or excipient. This pharmaceutical composition according to the invention was named Fluc-P for potentiated fluconazole. In each case, antifungal activity was determined either with fluconazole alone, or with carvacrol alone, or with the composition of the invention.
Table 5 gives the results of static tests to determine the minimal inhibitory concentration (MIC) and the minimal fungicidal concentration (MFC) in μg/ml.

Nc1nc(=O)[nH]cc1F [5-fluorocytosine]
MIC (Candida albicans; Candida albicans, Example 4, resistant strain, 5-fluorocytosine alone): 25 µg/mL | MIC (Candida albicans; Candida albicans, Example 4, susceptible strain, 5-fluorocytosine alone): 2.5 µg/mL | 5-fluorocytosine concentration producing fungicidal activity versus fungistatic concentration of 5-fluorocytosine alone (Candida albicans; resistant strains, with eugenol 0.5 mg/ml): five times lower

Cc1ccc(C(C)C)cc1O [Carvacrol, carvacrol]
MFC (Candida albicans; Candida albicans): 1000 µg/mL | MFC (Candida albicans; Example 1, highly resistant strain, exponential growth phase, substance alone): 1000 µg/mL | MFC (Candida albicans; Example 1, moderately resistant strain, exponential growth phase, substance alone): 1000 µg/mL | MFC (Candida albicans; Example 2, resistant strain, carvacrol alone): 1000 µg/mL | MFC (Candida albicans; Example 2, susceptible strain, carvacrol alone): 1000 µg/mL | MFC (Candida albicans; Example 3, resistant strain, carvacrol alone): 1000 µg/mL | MFC (Candida albicans; Example 3, susceptible strain, carvacrol alone): 1000 µg/mL | survival [1]: died during the experiment | Candida albicans loads in kidney, lung and bone marrow [1]: high loads | MFC (Aspergillus niger; Aspergillus niger): 500 µg/mL

CC[C@H](C)C[C@H](C)CCCCCCCCC(=O)N[C@H]1C[C@@H](O)[C@@H](NCCN)NC(=O)[C@@H]2[C@@H](O)CCN2C(=O)[C@H]([C@H](O)CCN)NC(=O)[C@H]([C@H](O)[C@@H](O)c2ccc(O)cc2)NC(=O)[C@@H]2C[C@@H](O)CN2C(=O)[C@H]([C@@H](C)O)NC1=O [Caspofungin, caspofungin]
MIC (Candida albicans; Candida albicans, Example 3, resistant strain, caspofungin alone): 3 µg/mL | MIC (Candida albicans; Candida albicans, Example 3, susceptible strain, caspofungin alone): < 0.05 µg/mL | caspofungin concentration producing fungicidal activity versus fungistatic concentration of caspofungin alone (Candida albicans; with carvacrol 0.3 mg/ml): at least six times lower

C=CCc1ccc(O)c(OC)c1 [Eugenol, eugenol]
MFC (Candida albicans; Candida albicans, Example 4, resistant strain, eugenol alone, read-out: MFC): 2000 µg/mL | MFC (Candida albicans; Candida albicans, Example 4, susceptible strain, eugenol alone, read-out: MFC): 2000 µg/mL

OC(Cn1cncn1)(Cn1cncn1)c1ccc(F)cc1F [Fluconazole, fluconazole]
MFC (Candida albicans; Candida albicans, Example 1, highly resistant strain, exponential growth phase, substance alone, read-out: MFC): > 300 µg/mL | MFC (Candida albicans; Candida albicans, Example 1, moderately resistant strain, exponential growth phase, substance alone, read-out: MFC): 150 µg/mL | MFC (Candida albicans; Candida albicans, Example 1, susceptible strain, exponential growth phase, substance alone, read-out: MFC): 0.5 µg/mL | survival [1]: died during the experiment | Candida albicans loads in kidney, lung and bone marrow [1]: high loads | MIC (Aspergillus niger; Example 5, 12 different strains of Aspergillus niger, fluconazole alone): > 1000 µg/mL

C[C@@H](c1ncncc1F)[C@](O)(Cn1cncn1)c1ccc(F)cc1F [Voriconazole, voriconazole]
MIC (Candida albicans; Candida albicans, Example 2, resistant strain, voriconazole alone): 10 µg/mL | MIC (Candida albicans; Candida albicans, Example 2, susceptible strain, voriconazole alone): < 0.05 µg/mL | voriconazole concentration producing fungicidal activity versus fungistatic concentration of voriconazole alone (Candida albicans; resistant strains, with carvacrol 0.3 mg/ml): at least ten times lower
